Tested on: PKC mediated IL-2 production
Assay: IL-2 ELISA, human primary T cell, anti CD3+CD28+
Assay type: cell-based
Details: human primary T cells stimulated with αCD3 and αCD28, 24 hours
Outline: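 Human peripheral blood T cells, pre-expanded with αCD3/αCD28 and IL-2 and then washed free of IL-2, were pre-incubated with compound for 1 h at 37° C. They were then stimulated on plates coated with […] αCD3 and 5 μg/ml αCD28, or with 0.5 ng/ml PMA plus 0.1 uM ionomycin in the counter assay. IL-2 in supernatants was measured by ELISA after 24 h.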

SMILES	EC50 (Homo sapiens, T-cell, 24 h) [nM]	EC50 [nM]
Cc1nnnn1-c1ccc(F)c(Nc2ncc(Cl)c(N[C@@H]3C[C@@H]4CCCN4C(C)(C)C3)n2)c1 [Compound 150, 5-chloro-N4-((7R,8aS)-5,5-dimethyloctahydroindolizin-7-yl)-N2-(2-fluoro-5-(5-methyl-1H-tetrazol-1-yl)phenyl)pyrimidine-2,4-diamine]	< 100	–
CC1(C)C[C@H](Nc2nc(Nc3ccc(O)c(C#N)c3)ncc2F)C[C@@H]2CCCN21 [Compound 168, 5-((4-(((7R,8aS)-5,5-dimethyloctahydroindolizin-7-yl)amino)-5-fluoropyrimidin-2-yl)amino)-2-hydroxybenzonitrile]	1000 to 10000	–
CC1(C)C[C@H](Nc2nc(Nc3cccc(-n4nn[nH]c4=O)c3)ncc2F)C[C@@H]2CCCN21 [Compound 260, 1-(3-(4-((7R,8aS)-octahydro-5,5-dimethylindolizin-7-ylamino)-5-fluoropyrimidin-2-ylamino)phenyl)-1H-tetrazol-5(4H)-one]	> 10000	–
Cn1nnn(-c2cc(Nc3ncc(F)c(N[C@H]4C[C@@H]5CC(F)(F)CN5C(C)(C)C4)n3)c(F)cc2C2CC2)c1=O [Compound 42, 1-(5-(4-((7S,8aR)-2,2-difluoro-octahydro-5,5-dimethylindolizin-7-ylamino)-5-fluoropyrimidin-2-ylamino)-2-cyclopropyl-4-fluorophenyl)-4-methyl-1H-tetrazol-5(4H)-one]	1000 to 10000	–
CC1(C)CC[C@H]2C[C@@H](Nc3nc(Nc4ccc(N5CC(O)C5)c(OC(F)F)c4)ncc3F)CCN21 [Compound 308, 1-(2-(Difluoromethoxy)-4-((4-(((7S,8aS)-3,3-dimethyloctahydroindolizin-7-yl)amino)-5-fluoropyrimidin-2-yl)amino)phenyl)azetidin-3-ol]	500 to 1000	–
CC1(C)C[C@H](Nc2nc(Nc3ccc(OCCO)c(Cl)c3)ncc2F)C[C@@H]2CCCN21 [Compound 133, 2-(2-chloro-4-((4-(((7R,8aS)-5,5-dimethyloctahydroindolizin-7-yl)amino)-5-fluoropyrimidin-2-yl)amino)phenoxy)ethan-1-ol]	100 to 500	–
CC1(C)Oc2c(F)cc(Nc3ncc(F)c(NC4CC5CCCN5C(C)(C)C4)n3)cc2-n2nnnc21 (centres unmarked) [Compound 5]	–	100 to 500
CC1(C)C[C@H](Nc2nc(Nc3ccc4c(c3)-n3nnnc3C3(COC3)O4)ncc2F)C[C@@H]2CCCN21 [Compound 126, N^4-((7R,8aS)-5,5-dimethyloctahydroindolizin-7-yl)-5-fluoro-N^2-(spiro[benzo[b]tetrazolo[1,5-d][1,4]oxazine-4,3′-oxetan]-8-yl)pyrimidine-2,4-diamine]	< 100	–
Cn1nnn(-c2cc(Nc3ncc(F)c(N[C@@H]4C[C@@H]5CCCN5C(C)(C)C4)n3)ccc2OCCO)c1=O [Compound 132, 1-(5-((4-(((7R,8aS)-5,5-dimethyloctahydroindolizin-7-yl)amino)-5-fluoropyrimidin-2-yl)amino)-2-(2-hydroxyethoxy)phenyl)-4-methyl-1,4-dihydro-5H-tetrazol-5-one]	< 100	–
CC1(C)CC[C@H]2C[C@@H](Nc3nc(Nc4ccc(OC5CC(O)C5)c(C#N)c4)ncc3F)CCN21 (some centres unmarked) [Compound 304]	100 to 500	–
CC(C)N1CCC(Oc2ccc(Nc3ncc(F)c(N[C@@H]4C[C@@H]5CCCN5C(C)(C)C4)n3)cc2OC(F)F)CC1 (single isomer, unassigned) [Compound 10, (R/S, S/R, R/R, S/S)-N^2-(4-(1-isopropylpiperidin-4-yloxy)-3-(difluoromethoxy)phenyl)-5-fluoro-N^4-(octahydro-5,5-dimethylindolizin-7-yl)pyrimidine-2,4-diamine]	–	100 to 500
CC1(COc2ccc(Nc3ncc(F)c(N[C@@H]4C[C@@H]5CCCN5C(C)(C)C4)n3)cc2-n2cnnn2)COC1 [Compound 203, N4-((7R,8aS)-5,5-dimethyloctahydroindolizin-7-yl)-5-fluoro-N2-(4-((3-methyloxetan-3-yl)methoxy)-3-(1H-tetrazol-1-yl)phenyl)pyrimidine-2,4-diamine]	< 100	–
Cn1nnn(-c2cc(Nc3ncc(F)c(N[C@@H]4C[C@@H]5C[C@H](F)CN5C(C)(C)C4)n3)c(F)cc2C2CC2)c1=O [Compound 67, 1-(5-(4-((2S,7R,8aR)-2-fluoro-octahydro-5,5-dimethylindolizin-7-ylamino)-5-fluoropyrimidin-2-ylamino)-2-cyclopropyl-4-fluorophenyl)-4-methyl-1H-tetrazol-5(4H)-one]	100 to 500	–
[2H]C1(Oc2ccc(Nc3ncc(F)c(N[C@H]4CCN5[C@@H](CCC5(C)C)C4)n3)cc2-n2nnn(C)c2=O)CC(O)C1 (stereo partly drawn) [Compound 309, 1-(5-((4-(((7S,8aS)-3,3-Dimethyloctahydroindolizin-7-yl)amino)-5-fluoropyrimidin-2-yl)amino)-2-(3-hydroxycyclobutoxy-1-d)phenyl)-4-methyl-1,4-dihydro-5H-tetrazol-5-one]	100 to 500	–
Cc1nnnn1-c1cc(Nc2ncc(F)c(NC3CC(C)(C)N4CCCC4C3C)n2)ccc1F (centres unmarked) [Compound 70, 5-Fluoro-N2-(4-fluoro-3-(5-methyl-1H-tetrazol-1-yl)phenyl)-N4-(octahydro-5,5,8-trimethylindolizin-7-yl)pyrimidine-2,4-diamine]	1000 to 10000	–
CC1(C)C[C@H](Nc2nc(Nc3cccc(-n4nnnc4S(C)(=O)=O)c3)ncc2F)C[C@@H]2CCCN21 [Compound 269, 5-fluoro-N4-((7R,8aS)-octahydro-5,5-dimethylindolizin-7-yl)-N2-(3-(5-(methylsulfonyl)-1H-tetrazol-1-yl)phenyl)pyrimidine-2,4-diamine]	500 to 1000	–
CC1(C)C[C@H](Nc2nc(Nc3ccc(F)c(-n4nnnc4C4CC4)c3)ncc2F)C[C@@H]2CCCN21 [Compound 143, N2-(3-(5-cyclopropyl-1H-tetrazol-1-yl)-4-fluorophenyl)-N4-((7R,8aS)-5,5-dimethyloctahydroindolizin-7-yl)-5-fluoropyrimidine-2,4-diamine]	< 100	–
CC1(C)C[C@H](Nc2nc(Nc3cccc(-n4nnnc4SC(CO)CO)c3)ncc2F)C[C@@H]2CCCN21 [Compound 263, 2-(1-(3-(4-((7R,8aS)-octahydro-5,5-dimethylindolizin-7-ylamino)-5-fluoropyrimidin-2-ylamino)phenyl)-1H-tetrazol-5-ylthio)propane-1,3-diol]	100 to 500	–
Cn1nnn(-c2cc(Nc3ncc(F)c(NC4CC5CCCN5C(C)(C)C4)n3)ccc2OC2CCOCC2)c1=O (centres unmarked) [Compound 51, 1-(5-(5-fluoro-4-(octahydro-5,5-dimethylindolizin-7-ylamino)pyrimidin-2-ylamino)-2-(tetrahydro-2H-pyran-4-yloxy)phenyl)-4-methyl-1H-tetrazol-5(4H)-one]	100 to 500	–
CC1(C)CC[C@H]2C[C@@H](Nc3nc(Nc4ccc(OCCCO)c(OC(F)F)c4)ncc3F)CCN21 [Compound 307, 3-(2-(Difluoromethoxy)-4-((4-(((7S,8aS)-3,3-dimethyloctahydroindolizin-7-yl)amino)-5-fluoropyrimidin-2-yl)amino)phenoxy)propan-1-ol]	100 to 500	–
CN1CCN(c2ccc(Nc3ncc(F)c(N[C@@H]4C[C@@H]5CCCN5C(C)(C)C4)n3)cc2C#N)CC1 [Compound 108, 5-((4-(((7R,8aS)-5,5-dimethyloctahydroindolizin-7-yl)amino)-5-fluoropyrimidin-2-yl)amino)-2-(4-methylpiperazin-1-yl)benzonitrile]	< 100	–
COc1ccc(Nc2ncc(F)c(N[C@@H]3C[C@@H]4CCCN4C(C)(C)C3)n2)cc1-n1nnn(CC(C)(C)O)c1=O [Compound 290, 1-(5-(4-((7R,8aS)-octahydro-5,5-dimethylindolizin-7-ylamino)-5-fluoropyrimidin-2-ylamino)-2-methoxyphenyl)-4-(2-hydroxy-2-methylpropyl)-1H-tetrazol-5(4H)-one]	100 to 500	–
Cn1nnn(-c2cc(Nc3ncc(F)c(N(CC(C)(C)O)[C@@H]4C[C@@H]5CCCN5C(C)(C)C4)n3)c(F)cc2OCC(C)(C)O)c1=O [Compound 139, 1-(5-(4-(((7R,8aS)-5,5-dimethyloctahydroindolizin-7-yl)(2-hydroxy-2-methylpropyl)amino)-5-fluoropyrimidin-2-ylamino)-4-fluoro-2-(2-hydroxy-2-methylpropoxy)phenyl)-4-methyl-1H-tetrazol-5(4H)-one]	> 10000	–
Cc1ccc(Nc2ncc(F)c(N[C@@H]3C[C@@H]4CCCN4C(C)(C)C3)n2)cc1-n1nn[nH]c1=O [Compound 272, 1-(5-(4-((7R,8aS)-octahydro-5,5-dimethylindolizin-7-ylamino)-5-fluoropyrimidin-2-ylamino)-2-methylphenyl)-1H-tetrazol-5(4H)-one]	> 10000	–
Cn1nnn(-c2cc(Nc3ncc(Cl)c(N[C@@H]4C[C@@H]5CCCN5C(C)(C)C4)n3)c(F)cc2OCC(C)(C)O)c1=O [Compound 240, 1-(5-((5-chloro-4-(((7R,8aS)-5,5-dimethyloctahydroindolizin-7-yl)amino)pyrimidin-2-yl)amino)-4-fluoro-2-(2-hydroxy-2-methylpropoxy)phenyl)-4-methyl-1,4-dihydro-5H-tetrazol-5-one]	< 100	–
CC1(C)C[C@H](Nc2nc(Nc3ccc(OC4CCN(C5COC5)CC4)c(C(F)(F)F)c3)ncc2F)C[C@@H]2CCCN21 [Compound 120]	100 to 500	–
Cn1nnn(-c2cc(Nc3ncc(C#N)c(N[C@@H]4C[C@@H]5CCCN5C(C)(C)C4)n3)c(F)cc2OC2CCOC2)c1=O (some centres unmarked) [Compound 111]	100 to 500	–
CC1(C)C[C@H](Nc2nc(Nc3cc(-n4cnnn4)c(C4CC4)cc3F)ncc2Cl)C[C@@H]2CCCN21 [Compound 146, 5-chloro-N2-(4-cyclopropyl-2-fluoro-5-(1H-tetrazol-1-yl)phenyl)-N4-((7R,8aS)-5,5-dimethyloctahydroindolizin-7-yl)pyrimidine-2,4-diamine]	< 100	–
Cn1nnn(-c2cc(Nc3ncc(F)c(N[C@H]4CCN5[C@@H](CCC5(C)C)C4)n3)c(F)cc2C2CC2)c1=O (single isomer, unassigned) [Compound 37]	–	1000 to 10000

Reference: patent US9682976B2, “Protein kinase C inhibitors and uses thereof” (Rigel Pharmaceuticals, Inc., priority 2012, dated 2017)
